Source: patent US20060141047A1, “Methods and compositions for delivery of catecholic butanes for treatment of obesity” (priority 2003, published 2006)
Where “and” joins values, the source holds several entries; their conditions need not be identical. Equal values may be shown once. Read-outs that look alike come from different tables or passages of the source.

Experiments:
[1] = tested on: HPV-16 transformed immortal mouse epithelial cells (C3); conditions: intratumor injection, separately or together, U.S. Pat. No. 6,417,234 and 6,214,874; cited from earlier work
[2] = Toxicokinetic (TK) analysis of M4N serum concentration; type: in vivo, Beagle Dogs; conditions: dogs, CET or DMSO formulations, minimal toxicity
Method: Blood samples from the CET group animals were collected via the jugular vein on Study Day (SD) 1, SD 3, SD 6, and SD 8 at the following time points: predose, 0.25, 0.5, 1, 2, 4, 8, and 16 hours following the completion of the approximate 4-hour infusion.
Blood samples from the DMSO group animals were collected via the cephalic vein on SD 1, SD 3, SD 6, and SD 8 at the following time points: predose, 0.25, 0.5, 1, 2, 4, 8, and 16 hours following the final injection dose of M4N-DMSO.
Blood samples collected from both groups of animals were processed for plasma and serum for TK analysis.
The plasma and serum samples were sent to MedTox Laboratories, the Sponsor's designated laboratory for TK analysis. TK analysis of M4N plasma and serum concentration-time data was performed using a validated method (M200406) by MedTox Laboratories and analyzed by noncompartmental methods to obtain estimates of toxicokinetic parameters (where data allow), but not necessarily limited to, Cmax, Tmax and AUC.

[3] = Fresh weights of isolated organs after 20 week feeding with fat-rich diet containing M4N; type: in vivo, mice
Method: (§1) While no definite conclusions can be made regarding most organs due to the small size of the populations tested, a decrease in adipocyte (fat cells) weight was nevertheless significant (0.84 g vs. 0.196 g) following a 20 week feeding with a fat-rich diet containing M4N. In particular, fat tissues from two control mice (C24 and C25) which were fed a fat-rich diet without M4N were isolated and incubated with CREM solvent or with CREM solvent plus M4N for a total period of 6 days (first extract 72 hours and second extract for an additional 72 hours). The fat cell weights were measured at 0 time, the third day and the sixth day following incubation in CREM solvent and without M4N.

[4] = Tissue distribution of 3H-M4N after a single intraperitoneal or intravenous injection; type: in vivo, mice; conditions: 3 hours post-injection, i.p. or i.v.
Method: M4N Tissue Distribution Studies Using 3H—M4N. […] The insoluble pellet was then further extracted with EtOH.
A mixture of tritiated and cold M4N was dissolved in a 6% Cremaphor EL, 6% ethanol, 88% saline solvent then injected intraperitoneally (i.p.) and intravenously (i.v.) via tail vein into mice. At 3 hours post-injection, the organs and blood were harvested and weighed, and the M4N was extracted. […] M4N was successfully distributed to various organs at 3 hours post-injection by both i.p. and i.v. routes of administration. […] Corroborating this, a very similar profile of distribution was observed using an oral route of administration described below. The majority of the recovered radioactivity localized to the gastrointestinal tract organs: the stomach, small intestine, caecum, and large intestine, in the range of 3 μg to 20 μg of M4N per gram of tissue.

[5] = tested on: fat tissues; test: Incubation of isolated fat tissue with CREM solvent plus M4N, fat weight; design: species or system mice
Method: as §1

[6] = mouse, in vivo, ip
Method: M4N Tissue Distribution Studies Using 3H—M4N. Harlan ICR mice or C3 cell-induced tumor-bearing C57bl/6 mice were injected via tail vein or intraperitoneally with 100 μL of Cremaphor-ethanol based solvent containing 100 μCi of tritiated M4N and 60 mM of cold M4N. At the specified time post-injection, the mice were sacrificed, the organs and blood were collected, weighed, then dissolved overnight in 4 M guanidine isothiocyanate (GITC). The insoluble pellet was then further extracted with EtOH. Tritium content of both the GITC extract and the EtOH extract was measured on a Packard scintillation counter and the quantity of M4N in each organ was calculated based on the specific activity of the inoculum.
To determine the distribution of M4N in tissues over time following a single application, and also to assess the ability to deliver M4N to a distant tumor, six C3 cell-induced tumor bearing mice (A-F) were treated i.p. with ^3H— M4N as described above. At 4 hours, 6 hours, 18 hours, and 6 days post-injection, the quantities of ^3H— M4N in various tissues and the tumors were measured.

[7] = Short-term oral feeding, M4N tissue levels by HPLC; type: in vivo, mice
Method: (§2) Tissue Distribution and Toxicity Analysis Following Short-Term and Long-Term Oral Feeding. For short-term feeding experiments, 30 mg of M4N dissolved in 300 μL castor oil was orally administered to each of 6 mice. At 2 h, 4 h, and 8 h post-administration time points, 2 mice were sacrificed, the organs and blood were collected, and the M4N extracted and quantitated as described below. In long-term feeding experiments, mice were fed food balls consisting of M4N dissolved in corn oil and Basal Mix (Harlan Teklad; Madison, Wis.; Cat. # TD 02273) for 14 weeks. Food balls weighed 9 g and contained 242 mg M4N each. Two mice, one male and one female, were reserved for long-term drug retention studies; and fourteen mice, both male and female, were used for long-term drug toxicity studies. At the end of feeding, mice were sacrificed, the organs and blood were collected, and the M4N extracted and quantitated as described below.
M4N Extraction and HPLC Analysis Following Oral Feeding. […] The dried samples were then analyzed quantitatively by HPLC and M4N was identified by mass spectroscopy using pure M4N as a standard.
In samples from short-term fed mice, dialysis was performed to further purify M4N from the tissue extracts. […] The dialysates were dried on benchtop and in a speed-vac, then analyzed by HPLC.
HPLC Quantitation of M4N. […]

[8] = dogs
Method: In this example the Maximal Tolerable Dose (MTD) of two different formulations of M4N [Cremaphor-Ethanol (CET) or Dimethyl Sulfoxide (DMSO)] to male and female Beagle Dogs was determined.
Dogs were treated prophylactically with an analgesic and antibiotic on the day of surgery and with antibiotics and/or analgesics following surgery (according to Gene Logic Inc. SOP Nos. 324.0.2, 325.0.1, and 326.0.2, as appropriate.) Other treatments were provided as recommended by the staff veterinarian. The catheter lines were flushed with saline during the postoperative recovery period with a frequency deemed appropriate by the Study Director.
Thus the M4N-DMSO group animals were administered with M4N-DMSO with eight intravenous injections via the non-VAP jugular vein every 30 minutes over a 4-hour period. This frequency of delivery mimicked the delivery of the test article using the infusion pump.
Animals from the CET group were observed during the entire infusion period and for at least one hour following end of infusion. The dogs in the DMSO group were observed throughout the jugular vein injection period and for at least one hour following the last (eighth) injection.

[9] = type: in vivo; conditions: for % Weight Change / Weight on End Date: M4N-fed mice
Method: as §2, with “In long-term feeding experiments, mice were fed food balls consisting of M4N dissolved in corn oil and Basal Mix (Harlan Teklad; Madison, Wis.; Cat. # TD 02273) for 14 weeks.” left out
In particular, weight was measured on a bi-weekly or monthly basis. […] However, to assess long-term drug toxicity, only the mice that were treated for more than 20 weeks were compared. A total of 14 mice were treated for more than 20 weeks, 6 M4N-treated and 8 control mice. Since females generally eat less than males and have lower body weight, comparisons were drawn between mice of the same sex. […] The fact that the control mice, both male and female, consumed much more food than the M4N-treated mice evidences a greater preference for food in the control subjects.

[10] = Maximum amount of M4N dissolved in Cremaphor EL/ethanol/saline solvent; type: physicochemical; conditions: 6% Cremaphor EL, 6% ethanol, 88% saline
Method: To assess the toxicity of prolonged intraperitoneal systemic treatment with M4N, and to determine a safe dosage for the following xenograft experiments, the following toxicity test was performed.

[11] = tested on: mammary carcinoma MX-1 xenograft; conditions: intratumor injection or topical application, athymic mice, U.S. Pat. No. 5,008,294; cited from earlier work

## C[C@H](Cc1ccc(OC(=O)CN(C)C)c(OC(=O)CN(C)C)c1)[C@@H](C)Cc1ccc(OC(=O)CN(C)C)c(OC(=O)CN(C)C)c1 [G4N, meso-1,4-bis[3,4-(dimethylaminoacetoxy)phenyl]-(2R,3S)-dimethylbutane]
[1]
  Suppression of tumor growth: some evidence of suppression of tumor growth

## COc1ccc(C[C@@H](C)[C@@H](C)Cc2ccc(OC)c(OC)c2)cc1OC [M4N, meso-1,4-bis(3,4-dimethoxyphenyl)-2,3-dimethylbutane]
[2]
  Blood levels of M4N achieved: up to 14,000 ng/ml
[1]
  Suppression of tumor growth: some evidence of suppression of tumor growth
[3]; Female, 20 week feeding
  Fresh organ weight, Bladder: 0.034 g
  Fresh organ weight, Caecum: 0.162 g
  Fresh organ weight, Colon: 0.195 g
  Fresh organ weight, Heart: 0.107 g
  Fresh organ weight, Kidney: 0.3 g
  Fresh organ weight, Liver: 1.153 g
  Fresh organ weight, Lung: 0.205 g
  Fresh organ weight, Pancreas: 0.18 g
  Fresh organ weight, Small Intestine: 1.193 g
  Fresh organ weight, Spleen: 0.08 g
  Fresh organ weight, Stomach: 0.243 g
  Fresh weight, Fat: 0.509 g
[3]; Male, 20 week feeding
  Fresh organ weight, Bladder: 0.026 g
  Fresh organ weight, Caecum: 0.133 g
  Fresh organ weight, Colon: 0.186 g
  Fresh organ weight, Heart: 0.319 g
  Fresh organ weight, Kidney: 0.35 g
  Fresh organ weight, Liver: 1.44 g
  Fresh organ weight, Lung: 0.156 g
  Fresh organ weight, Pancreas: 0.121 g
  Fresh organ weight, Small Intestine: 1.44 g
  Fresh organ weight, Small Vesicles: 0.154 g
  Fresh organ weight, Spleen: 0.065 g
  Fresh organ weight, Stomach: 0.177 g
  Fresh organ weight, Testes: 0.189 g
[3]; Male, 20 week feeding with fat-rich diet
  Fresh weight, Fat: 0.196 g
[4]
  M4N detected in heart or blood: Little or no M4N
  M4N present in liver and fat: Significant quantities
[5]; fat tissue of mouse C25, 72 hours in CREM solvent + 21.4 mg M4N
  Fat Weight After First Extraction: 0.481 g
[5]; fat tissue of mouse C25, additional 72 hours (6 days total) in CREM solvent + M4N
  Fat Weight After Second Extraction: 0.059 g
[6]
  M4N in the tumor: 294 ng M4N per gram of wet tumor
  M4N tissue levels at 6 days post-injection relative to levels at 6 hours: 5-10%
  Time of peak M4N tissue levels: approximately 6 hours
[7]; 2 hours post-feeding, 30 mg M4N in castor oil, oral
  M4N in each tissue: < 2 ng per gram tissue
[7]; post-feeding, single oral 30 mg M4N
  Time of peak M4N levels: roughly 4 hours
[8]; CET vehicle
  Dose safely administered by intravenous infusion over four hours: up to 10 mg/kg
[8]; DMSO vehicle
  Dose safely administered by intravenous infusion over four hours: up to 100 mg/kg
[9]; Female mice treated 20 weeks
  Average % Weight Change: 24.9%
  Average Amount of Food Consumed: 258.8 g
[9]; length of treatment 8 weeks
  % Weight Change: 20.5% and 18.1%
  Weight on End Date: 26.4 g and 24.1 g
[9]; length of treatment 9 weeks
  Weight on End Date: 18.9 g and 24.2 g and 19.7 g
[9]; length of treatment 11 weeks
  % Weight Change: 11.8%
  Weight on End Date: 20.8 g
[9]; Male mice treated 20 weeks
  Average % Weight Change: 21%
  Average Amount of Food Consumed: 225 g and 225.0 g
[9]; both male and female mice, long-term oral feeding
  Effect on appetite: reduced the appetite
[9]; mice, systemic or oral administration
  Effect on body weight: caused weight loss
[9]; mouse, in vivo, po
  Toxic effects on female mice: did not have toxic effects
[10]
  Maximum amount of M4N which may be dissolved in the solvent: 20 mg/mL

## CC(Cc1ccc(O)c(O)c1)C(C)Cc1ccc(O)c(O)c1 (stereo not drawn) [NDGA, nordihydroguaiaretic acid]
[11]
  Inhibition of tumor growth: Some evidence of inhibition of tumor growth
